# Data published in the supplement of paper PMC11208160.
# Test: recombinant UMI read abundance after kanamycin selection (control-corrected) (log10(CPM+1)); higher = more efficient recombination; extreme values may be limits of the assay; sequences stand for … in AGTGCAGAGAAAATCGGCCAGTTTTCTCTGCCTGCAGTCCGCATGCCGTGGGACCCCTTGGGTTCTAACCTGTTGCCTAGATTTATGCAGCGGACTGCCTTTCTCCCAAAGTGATAAACCGG…AGGTTGGTTTCACT; site = the 11-nt donor
# Outline: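 Counts of recombinant UMIs were reported as log10(CPM+1). Before that, they were converted to CPM, averaged over replicates and scaled using control-derived factors. They came from PCR across the donor–target junction after Escherichia coli carrying the pair library and target plasmid was plated on IPTG (0.07 mM) plus kanamycin, or unselected, in two replicates each.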
# 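Further: IS621 bridge recombinase in Escherichia coli cells against a fixed T5 target plasmid.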
row,Sequence,recombinant UMI read abundance (log10)
1,ATGTAGGCATGGACCGGTTTTCCCGGTAATCCGTATTTGGG (site ATGTAGGCTGC),0
2,ATGTAGGCATGGACCGGTTTTCCCGGTAATCCGTATTTGGG (site ATGTAGGCTTC),0.0205
3,ATGTAGGCATGGACCGGTTTTCCCGGTAATCCGTATTTGTC (site ATGTAGGCTGA),2.72
4,ATGTAGGCATGGACCGGTTTTCCCGGTAATCCGTATTTGTC (site ATGTAGGCTGC),1.62
5,ATGTAGGCATGGACCGGTTTTCCCGGTAATCCGTATTTGTC (site ATGTAGGCTGG),2.52
6,ATGTAGGCATGGACCGGTTTTCCCGGTAATCCGTATTTGTC (site ATGTAGGCTGT),1.91
7,ATGTATACATGGACCGGTTTTCCCGGTAATCCGTATTTGCA (site ATGTATACTTG),2.39
8,ATGTCGACATGGACCGGTTTTCCCGGTAATCCGTATTTGCG (site ATGTCGACTCG),0.954
9,ATGTCGGCATGGACCGGTTTTCCCGGTAATCCGTATTTGGC (site ATGTAGGCTGC),0.445
10,ATGTCGGCATGGACCGGTTTTCCCGGTAATCCGTATTTGGC (site ATGTCGGCTGC),2.2
11,ATGTCGGCATGGACCGGTTTTCCCGGTAATCCGTATTTGGC (site ATGTGGGCTGC),0
12,ATGTCGGCATGGACCGGTTTTCCCGGTAATCCGTATTTGGC (site ATGTTGGCTGC),0.0547
13,ATGTTCACATGGACCGGTTTTCCCGGTAATCCGTATTTGGT (site ATGTTCACTAC),1.66
14,ATGTTTGCATGGACCGGTTTTCCCGGTAATCCGTATTTGCG (site ATGTTTGCTCG),1.95
15,ATGTTTGCATGGACCGGTTTTCCCGGTAATCCGTATTTGCT (site ATGTTTGCTAG),1.94
16,ATTCCCTCATGGACCGGTTTTCCCGGTAATCCGTATTTGAC (site ATTCCCTCTGT),3.23
17,ATTCCTACATGGACCGGTTTTCCCGGTAATCCGTATTTGAC (site ATTCCTACTGT),0.882
18,ATTCGAGCATGGACCGGTTTTCCCGGTAATCCGTATTTGCA (site ATTCGAGCTTG),1.49
19,ATTCGAGCATGGACCGGTTTTCCCGGTAATCCGTATTTGCA (site CTTCGAGCTTG),1.44

row,Sequence,recombinant UMI read abundance (log10)
1,ATTCGAGCATGGACCGGTTTTCCCGGTAATCCGTATTTGCA (site GTTCGAGCTTG),0.663
2,ATTCGAGCATGGACCGGTTTTCCCGGTAATCCGTATTTGCA (site TTTCGAGCTTG),0.947
3,ATTCGCCCATGGACCGGTTTTCCCGGTAATCCGTATTTGAA (site ATTCGCCCTTT),0.156
4,ATTCGCTCATGGACCGGTTTTCCCGGTAATCCGTATTTGAA (site ATTCGCTCTTT),0.571
5,ATTCTCTCATGGACCGGTTTTCCCGGTAATCCGTATTTGTA (site ATTCTCTCTTA),2.35
6,ATTCTCTCATGGACCGGTTTTCCCGGTAATCCGTATTTGTA (site CTTCTCTCTTA),2.42
7,ATTCTCTCATGGACCGGTTTTCCCGGTAATCCGTATTTGTA (site GTTCTCTCTTA),1.52
8,ATTCTCTCATGGACCGGTTTTCCCGGTAATCCGTATTTGTA (site TTTCTCTCTTA),1.58
9,ATTCTTACATGGACCGGTTTTCCCGGTAATCCGTATTTGAG (site ATTCTTACTCT),0.0416
10,ATTGAAACATGGACCGGTTTTCCCGGTAATCCGTATTTGGC (site ATTGAAACTGC),2.15
11,ATTGAAGCATGGACCGGTTTTCCCGGTAATCCGTATTTGCA (site ATTGAAGCTTG),2.44
12,ATTGACACATGGACCGGTTTTCCCGGTAATCCGTATTTGAC (site ATTGACACTGT),2.61
13,ATTGAGACATGGACCGGTTTTCCCGGTAATCCGTATTTGAT (site ATTGAGACTAA),0.37
14,ATTGAGACATGGACCGGTTTTCCCGGTAATCCGTATTTGAT (site ATTGAGACTAC),0.217
15,ATTGAGACATGGACCGGTTTTCCCGGTAATCCGTATTTGAT (site ATTGAGACTAG),0.528
16,ATTGAGACATGGACCGGTTTTCCCGGTAATCCGTATTTGAT (site ATTGAGACTAT),2.01
17,ATTGATACATGGACCGGTTTTCCCGGTAATCCGTATTTGCG (site CCACTCCCTGT),0
18,ATTGCACCATGGACCGGTTTTCCCGGTAATCCGTATTTGGT (site ATTGCACCTAC),0.00574
19,ATTGCCACATGGACCGGTTTTCCCGGTAATCCGTATTTGCC (site ATTGCCACTGG),1.95

row,Sequence,recombinant UMI read abundance (log10)
1,ATTGTAACATGGACCGGTTTTCCCGGTAATCCGTATTTGAG (site ATTGTAACTCT),0.94
2,ATTGTATCATGGACCGGTTTTCCCGGTAATCCGTATTTGTC (site ATTGTATCTGA),1.56
3,ATTGTGACATGGACCGGTTTTCCCGGTAATCCGTATTTGCT (site ATTGTGACTAG),2.98
4,ATTTCAACATGGACCGGTTTTCCCGGTAATCCGTATTTGAC (site ATTTCAACTGT),0.461
5,ATTTCCACATGGACCGGTTTTCCCGGTAATCCGTATTTGTC (site ATTTCCACTGA),0.636
6,ATTTGGGCATGGACCGGTTTTCCCGGTAATCCGTATTTGGG (site ATTTGGGCTCC),0.0319
7,CAAAATCCATGGACCGGTTTTCCCGGTAATCCGTATTTGTA (site CAAAATCCTTA),1.8
8,CAAAGGGCATGGACCGGTTTTCCCGGTAATCCGTATTTGTA (site CAAAGGGCTTA),2.57
9,CAAAGTCCATGGACCGGTTTTCCCGGTAATCCGTATTTGTA (site AAAAGTCCTTA),0.474
10,CAAAGTCCATGGACCGGTTTTCCCGGTAATCCGTATTTGTA (site CAAAGTCCTTA),2.04
11,CAAAGTCCATGGACCGGTTTTCCCGGTAATCCGTATTTGTA (site GAAAGTCCTTA),0.405
12,CAAAGTCCATGGACCGGTTTTCCCGGTAATCCGTATTTGTA (site TAAAGTCCTTA),0.742
13,CAAATATCATGGACCGGTTTTCCCGGTAATCCGTATTTGAC (site CAAATATCTGT),1.58
14,CAAATATCATGGACCGGTTTTCCCGGTAATCCGTATTTGAC (site CTAGTATCTGT),0.632
15,CAACATACATGGACCGGTTTTCCCGGTAATCCGTATTTGGG (site CAACATACTCC),0.887
16,CAACTCTCATGGACCGGTTTTCCCGGTAATCCGTATTTGGT (site CAACTCTCTAC),2.56
17,CAACTGACATGGACCGGTTTTCCCGGTAATCCGTATTTGCA (site CAACTGACTTG),2.73
18,CAACTTCCATGGACCGGTTTTCCCGGTAATCCGTATTTGTT (site CAACTTCCTAA),1.5
19,CAAGAAGCATGGACCGGTTTTCCCGGTAATCCGTATTTGCT (site CAAGAAGCTAG),1.55
